Data: ChEMBL document CHEMBL1137856, “The pharmacophore hypotheses of I(Kr) potassium channel blockers: novel class III antiarrhythmic agents” (Bioorg Med Chem Lett, 2004)

Each compound was assayed against Voltage-gated inwardly rectifying potassium channel KCNH2 (Homo sapiens, UniProt Q12809) (assay: Inhibitory concentration against IKr potassium channel).
Sequence of Voltage-gated inwardly rectifying potassium channel KCNH2 (Q12809 whole entry): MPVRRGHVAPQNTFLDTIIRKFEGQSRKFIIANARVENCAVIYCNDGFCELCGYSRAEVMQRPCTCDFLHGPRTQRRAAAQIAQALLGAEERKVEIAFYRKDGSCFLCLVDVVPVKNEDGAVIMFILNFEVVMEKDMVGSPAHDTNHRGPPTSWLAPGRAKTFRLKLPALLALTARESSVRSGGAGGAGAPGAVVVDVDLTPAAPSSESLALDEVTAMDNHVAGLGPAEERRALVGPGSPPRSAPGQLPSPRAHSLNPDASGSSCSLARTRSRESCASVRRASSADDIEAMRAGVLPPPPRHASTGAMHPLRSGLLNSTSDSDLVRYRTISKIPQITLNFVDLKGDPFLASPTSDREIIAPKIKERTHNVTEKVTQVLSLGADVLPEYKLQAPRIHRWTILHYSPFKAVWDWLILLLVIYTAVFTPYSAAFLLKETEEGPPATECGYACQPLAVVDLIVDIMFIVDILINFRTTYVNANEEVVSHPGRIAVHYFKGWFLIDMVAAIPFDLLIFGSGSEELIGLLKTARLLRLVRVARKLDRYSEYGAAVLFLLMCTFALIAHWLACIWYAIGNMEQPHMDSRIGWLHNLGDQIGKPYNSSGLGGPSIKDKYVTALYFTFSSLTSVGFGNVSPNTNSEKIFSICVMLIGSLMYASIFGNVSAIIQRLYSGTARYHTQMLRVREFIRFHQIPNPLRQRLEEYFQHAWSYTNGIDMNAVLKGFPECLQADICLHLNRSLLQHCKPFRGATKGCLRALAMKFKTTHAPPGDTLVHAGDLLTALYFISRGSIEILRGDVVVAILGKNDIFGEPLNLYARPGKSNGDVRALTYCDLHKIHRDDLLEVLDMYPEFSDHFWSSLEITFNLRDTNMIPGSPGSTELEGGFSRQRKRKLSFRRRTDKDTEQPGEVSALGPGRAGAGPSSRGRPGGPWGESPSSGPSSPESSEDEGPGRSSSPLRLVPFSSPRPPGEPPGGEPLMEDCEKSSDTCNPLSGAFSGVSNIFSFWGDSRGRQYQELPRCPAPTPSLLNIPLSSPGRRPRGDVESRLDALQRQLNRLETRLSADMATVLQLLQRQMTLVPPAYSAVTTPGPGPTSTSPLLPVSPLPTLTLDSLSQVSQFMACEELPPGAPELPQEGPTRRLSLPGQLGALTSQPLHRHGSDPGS
In the case of `CCCCCCCN(CC)CCCCc1ccc([N+](=O)[O-])cc1`, the IC50 is reported as 0.01 µM.
Work on `COc1ccc(CCNCCCNC(=O)c2ccc([N+](=O)[O-])cc2)cc1OC` yielded an IC50 of 0.42 µM.
`COc1cc2c(cc1OC)C(Cc1ccc(O)c(Oc3ccc(C[C@@H]4c5cc(OC)c(OC)cc5CCN4C)cc3)c1)N(C)CC2` (single isomer, unassigned) [DAURICINE] was tested, and the IC50 was 16 µM.
`CCCNCC(O)COc1ccc(O)cc1C(=O)CCc1ccccc1` (stereo not drawn) [5-HYDROXY PROPAFENONE] gave an IC50 of 40 µM.
Compound `CN1CCN(CCCCN2C(=O)CN(/N=C/c3ccc(-c4ccc(Cl)cc4)o3)C2=O)CC1` [AZIMILIDE] has an IC50 of 0.4 µM.
With `Nc1ccncc1` [DALFAMPRIDINE] the IC50 was 4400 µM.
Compound `CCCCc1oc2ccc(NS(C)(=O)=O)cc2c1C(=O)c1ccc(OCCCN(CCCC)CCCC)cc1` [DRONEDARONE] has an IC50 of 3 µM.
`CCCCN(CCCC)CC(O)c1cc(Cl)cc2c1-c1ccc(Cl)cc1C2=Cc1ccc(Cl)cc1` (stereo not drawn) [LUMEFANTRINE] was tested, and the IC50 was 8.1 µM.
`NCC(O)COc1ccccc1C(=O)CCc1ccccc1` (stereo not drawn) [N-DEPROPYL-PROPAPHENONE] was tested, and the IC50 was 44 µM.
With `CCC1(c2ccccc2)C(=O)NC(=O)NC1=O` [PHENOBARBITAL] the IC50 was 3000 µM.
`COc1ccc(CN(CCN(C)C)c2ccccn2)cc1` [PYRILAMINE] gave an IC50 of 1.1 µM.
In the case of `COc1ccc(C2CCN(CC[C@H]3CCOc4ccccc43)CC2)cc1OC` [TERIKALANT], the IC50 is reported as 0.03 µM.
For `COc1ccc(C(=O)N2CCN(c3ccc4c(c3)CCC(=O)N4)CC2)cc1OC` [VESNARINONE], the IC50 was 18 µM.
